Results as given in patent US20260152527A1, “NOVEL MELANOCORTIN ANALOGS” (priority 2022, published 2026).
In brackets after ≈: the same amount, converted by molar mass. Read-outs that look alike come from different tables or passages of the source. Positions of bridges follow the written chain, without caps; N, C: chain ends. Non-standard residues stand in square brackets, D forms with d. Residues, ends and D or L forms follow the SMILES beside them. Triazole bridges read from a SMILES are 1,4-linked. *: point of attachment. dPhe(4-CF3) = N[C@H](Cc1ccc(C(F)(F)F)cc1)C(=O)O; Benzoyl(3,5-(OH)2) = O=C(c1cc(O)cc(O)c1)*; Lys(N3) = [N-]=[N+]=NCCCC[C@H](N)C(=O)O; dPhe(4-F) = N[C@H](Cc1ccc(F)cc1)C(=O)O; NMeH = CN[C@@H](Cc1c[nH]cn1)C(=O)O; NMeR = CN[C@@H](CCCNC(=N)N)C(=O)O; dNMeF = CN[C@H](Cc1ccccc1)C(=O)O; Aad = N[C@@H](CCCC(=O)O)C(=O)O; Nle = CCCC[C@H](N)C(=O)O; Pra = C#CC[C@H](N)C(=O)O

Key:
[1] = rabbit
Description: (§1) To evaluate the effects of the peptide formulations following topical administration and subconjunctival injection a study in rabbits was undertaken. Animals were acclimated to the study and, upon completion of the acclimation period, each animal was physically examined for determination of suitability for study participation. Animals determined to be in good health were randomized into study groups to achieve averaged mean body weight in each group. (N=24; 3 animals per study group) Animals will be uniquely identified by corresponding cage card number and ear tag.
(§2) For topical ocular dosing the designated peptide formulations (35 L) were administered to the eye of each animal using a calibrated pipette. With the animal manually restrained, the upper eyelid of the eye was gently elevated to expose the cornea. Treatment was then be applied to the cornea without contacting the eye with the pipette tip. One topical drop was applied per eye for four days. Tissue collection (aqueous humor) occurred 30 minutes after last dose.
(§3) A veterinary ophthalmologist performed complete ocular examinations using a slit lamp biomicroscope and indirect ophthalmoscope to evaluate ocular surface morphology and anterior and posterior segment inflammation on all animals prior to injection to serve as a baseline for enrollment into the study as well as on specific study days. Animals were not tranquilized for the examinations.
(§4) At least 1.0 mL of whole blood was drawn from the marginal ear vein or cardiac puncture (terminal bleed only) into K2EDTA tubes for plasma collection. After collection, the tubes were gently mixed by inverting the tubes 5-8 times. Blood samples were stored on wet ice prior to plasma processing. The samples were centrifuged at 4° C. for 10 minutes at 2000 g in a swinging bucket refrigerated centrifuge. Within 20 minutes of the blood collection time, the clear plasma was transferred to prelabelled polypropylene tubes, snap frozen, and stored frozen at approximately −80° C.
(§5) Following euthanasia, eyes were enucleated and marked at the 12:00 position. Aqueous humor was removed via a 27 or 30 gauge syringe following a 10-15 second rinse with PBS and blot with Kimwipe, and snap frozen by immersing in liquid nitrogen. The whole globe was then snap frozen in liquid nitrogen and stored at −80° C. to be held for potential dissection. All samples were placed into individual vials and weighed. The plasma and aqueous humor were collected.
(§6) The peptides were evaluated for their ocular tolerability and pharmacokinetics following repeated (QID×4 days) topical instillation or a single subconjunctival injection in rabbits. The study examined penetration into the anterior chamber and concentrations in the plasma by measuring at a single time point.

human recombinant MC4R = target: T1, human recombinant MC4R (Homo sapiens, UniProt P32245); test: Ca2+ signalling functional assay, MC4R stable cell line (CHO-K1/Gα15); format: cell-based; conditions: for IC50: calcium flux functional assay
T1 construct: host or cells: CHO-K1/Gα15
T1 sequence (P32245 whole entry): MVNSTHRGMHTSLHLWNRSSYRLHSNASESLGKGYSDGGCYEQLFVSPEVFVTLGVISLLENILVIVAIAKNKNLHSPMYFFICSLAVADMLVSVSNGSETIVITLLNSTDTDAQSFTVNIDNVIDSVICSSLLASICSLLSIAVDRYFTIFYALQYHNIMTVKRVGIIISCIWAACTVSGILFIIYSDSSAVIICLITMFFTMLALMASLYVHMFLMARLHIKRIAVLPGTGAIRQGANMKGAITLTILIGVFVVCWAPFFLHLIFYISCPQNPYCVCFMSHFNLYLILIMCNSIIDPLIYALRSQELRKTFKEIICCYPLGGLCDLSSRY
Protocol: The Ca^2+ signalling functional assay was performed on a human recombinant MC4R stable cell line (CHO-K1/Gα15, GenScript). The cells were cultured at 37° C. and 5% CO2 with culture medium (90% Ham's F-12K (Kaighn's)+10% FBS+8 μg/mL Puromycin+100 μg/mL Hygromycin B). Cells were washed with PBS and then detached by incubation with 0.05% (w/v) Trypsin EDTA at 37° C. for 2-5 mins. Detached cells were suspended in Ham's F-12K (Kaighn's) (containing 10% FBS) and a 50 μL cell suspension was seeded into each well of a 384-well assay plate at a density of 15,000 cells/well. Cells were allowed to settle overnight at 37° C., 5% CO2. The next day, the assay plate was centrifuged and the media was replaced with dye (1×) in assay buffer (containing HBSS, HEPES 20 mM and probenecid 1 mM) and incubated for 1 h at 37° C. […] Then, 100 nL of compounds were transferred to the compound plate by the Echo machine. 30 μL assay buffer was added to the compounds plate and then shaken for 20 to 40 minutes. The plates were placed on the FLIPR and 15 μL of the compound was added to each well, then calcium flux signal was measured.

human recombinant MC5R = target: T2, human recombinant MC5R (Homo sapiens, UniProt P33032); test: Ca2+ signalling functional assay, MC5R stable cell line (CHO-K1/Ga15); format: cell-based
T2 construct: host or cells: CHO-K1/Ga15
T2 sequence (P33032 whole entry): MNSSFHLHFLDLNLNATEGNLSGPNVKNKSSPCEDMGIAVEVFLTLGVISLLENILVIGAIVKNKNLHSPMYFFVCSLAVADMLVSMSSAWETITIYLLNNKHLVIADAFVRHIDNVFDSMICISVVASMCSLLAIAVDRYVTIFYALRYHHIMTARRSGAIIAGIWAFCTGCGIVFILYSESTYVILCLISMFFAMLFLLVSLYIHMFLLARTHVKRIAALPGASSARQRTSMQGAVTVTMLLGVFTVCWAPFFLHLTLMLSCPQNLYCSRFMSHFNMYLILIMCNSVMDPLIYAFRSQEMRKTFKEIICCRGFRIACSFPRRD
Protocol: The Ca^2+ signalling functional assay was performed on a human recombinant MC5R stable cell line (CHO-K1/Ga15, GenScript). The cells were cultured at 37° C. and 5% C02 with culture medium (90% Ham's F-12K (Kaighn's)+10% FBS+400 μg/mL G418+100 μg/mL Hygromycin B). Cells were washed with PBS and then detached by incubation with 0.05% (w/v) Trypsin EDTA at 37° C. for 2 to 5 mins. Detached cells were suspended in Ham's F-12K (Kaighn's) (containing 10% FBS) and a 50 μL cell suspension is seeded into each well of a 384-well assay plate at a density of 15,000 cells/well. Cells were allowed to settle overnight at 37° C., 5% CO2. […] Then, 100 nL of compounds were transferred to the compound plate by the Echo machine. Thirty microliter assay buffer was added to the compounds plate and then shaken for 20-40 minutes. The plates were placed on the FLIPR and 15 μL of the compound was added to each well, then calcium flux signal was measured.

[2] = Thermodynamic solubility study in water; format: physicochemical
Protocol: The study was conducted in water. Water was added into compound powder to make a 10 mg/mL solution. Sample tubes were shaken at the vibrator for 1 hour (1000 rpm) and then equilibrated overnight at room temperature. Samples were centrifuged at 12000 rpm for 10 min to precipitate undissolved particles. Supernatants were transferred from tubes to a new plate. An aliquot of the supernatant after centrifugation was taken from each well, then analyzed by LC-MS/MS. The concentration of the supernatants was quantified by a standard curve.

human recombinant MC3R = target: T3, human recombinant MC3R (Homo sapiens, UniProt P41968); test: Ca2+ signalling functional assay, MC3R stable cell line (CHO-K1/Gα15); format: cell-based; conditions: calcium flux functional assay
T3 construct: host or cells: CHO-K1/Gα15
T3 sequence (P41968 whole entry): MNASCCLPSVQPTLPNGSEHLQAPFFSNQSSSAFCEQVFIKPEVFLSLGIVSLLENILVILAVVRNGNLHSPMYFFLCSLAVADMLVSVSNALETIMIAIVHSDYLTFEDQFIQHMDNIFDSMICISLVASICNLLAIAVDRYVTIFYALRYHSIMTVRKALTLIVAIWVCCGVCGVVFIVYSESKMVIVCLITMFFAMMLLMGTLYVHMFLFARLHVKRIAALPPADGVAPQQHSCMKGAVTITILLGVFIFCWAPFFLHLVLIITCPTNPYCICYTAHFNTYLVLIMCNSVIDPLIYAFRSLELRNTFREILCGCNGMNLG
Protocol: The Ca^2+ signalling functional assay was performed on a human recombinant MC3R stable cell line (CHO-K1/Gα15, GenScript). The cells were cultured at 37° C. and 5% CO2 with culture medium (90% Ham's F-12K (Kaighn's)+10% FBS+200 μg/mL Zeocin+100 μg/mL Hygromycin B). Cells were washed with PBS and then detached by incubation with 0.05% (w/v) Trypsin EDTA at 37° C. for 2-5 mins. Detached cells were suspended in Ham's F-12K (Kaighn's) (containing 10% FBS) and a 50 μL cell suspension was seeded into each well of a 384-well assay plate at a density of 10,000 cells/well. Cells were allowed to settle overnight at 37° C., 5% CO2. […] The compounds and reference compound ACTH were diluted in 4 folds starting from 50 uM. Then, 500 nL of compounds were transferred to the compound plate by the Echo machine. 30 uL assay buffer was added into the compounds plate and then shaken for 20-40 minutes. The plates were then placed on the FLIPR Tetra High-Throughput Cellular Screening System (FLIPR®, Molecular Devices) and 15 μL of the compound was added to each well, then calcium flux signal was measured.

human recombinant MC1R = target: T4, human recombinant MC1R (Homo sapiens, UniProt Q01726); test: cyclic AMP (cAMP) functional assay, MC1R stable cell line (CHO-K1); format: cell-based; conditions: for IC50: cAMP functional assay;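 as to all read-outs here: cells with test compound for 60 min at room temperature in buffer containing IBMX, then cAMP quantified by Eu-cAMP tracer and ULight anti-cAMP detection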
T4 construct: host or cells: CHO-K1
T4 sequence (Q01726 whole entry): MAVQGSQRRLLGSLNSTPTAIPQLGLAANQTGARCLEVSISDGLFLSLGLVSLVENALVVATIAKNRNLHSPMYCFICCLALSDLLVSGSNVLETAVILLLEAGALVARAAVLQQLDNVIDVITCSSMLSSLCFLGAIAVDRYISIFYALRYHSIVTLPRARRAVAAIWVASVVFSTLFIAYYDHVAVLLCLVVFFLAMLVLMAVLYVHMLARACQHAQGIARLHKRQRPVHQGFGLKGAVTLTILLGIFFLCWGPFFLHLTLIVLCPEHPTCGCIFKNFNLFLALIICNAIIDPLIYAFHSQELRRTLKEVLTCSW
Protocol: The cyclic AMP (cAMP) functional assay was performed on a human recombinant MC1R stable cell line (CHO-K1, GenScript). The cells were cultured at 37° C. and 5% CO2 with culture medium (90% Ham's F-12K (Kaighn's)+10% FBS+400 μg/mL G418). […] Then, 100 nL of compounds were transferred to the assay plate by the Echo machine. Cells were washed with PBS and then detached by incubation with 0.05% (w/v) Trypsin EDTA at 37° C. for 2 to 5 mins. Cells were collected with stimulation buffer (1×HBSS with 5 mM HEPES+0.2 mM IBMX+0.1% BSA) and 10 ul of cells (the density of 2,500 cells/well) solution was transferred to assay plate, centrifuged at 600 rpm for 3 min and then incubated with compounds at room temperature for 60 min. After that, 5 μL 4×Eu-cAMP tracer solution and 5 μL 4×ULight™-anti-cAMP solution was added into the cells, centrifuged at 600 rpm for 3 min and incubated for 60 min. The cAMP signal was detected with Envision® Multimode Plate Reader (PerkinElmer).

[3] = In vivo topical administration tissue distribution study, minipig; conditions: topical 5 mg/mL BID
Protocol: Animals were acclimated to the study environment for a minimum of 1 week. […] Examinations included, but were not limited to, the skin and external ears, eyes, and abdomen, neurological behavior, and general body condition.
Treatment was administered twice daily (BID) with approximately 6-8 hours between each BID dose, with tissue collection one hour after the last dose. Tissues and blood collected include plasma, aqueous humor, iris/ciliary body, vitreous humor, eye cup containing the retinal pigment epithelium, choroid, sclera, cornea, retina, optic nerve, and brain.
Blood (3 mL) was collected IV or ICAR for terminal collections and placed into K2EDTA tubes for plasma acquisition. […] Blood samples were stored on wet ice for up to 30 minutes prior to plasma processing.
Following euthanasia, eyes were enucleated and rinsed twice with fresh ice-cold PBS. Aqueous humor was removed via a 27 or 30 G syringe, weighed in polypropylene screw cap tubes, and snap frozen by immersing in liquid nitrogen. Eyes were dissected while frozen. All tissues were placed into individual vials, weighed, and snap frozen. The brain was collected and weighed. The hypothalamus, hippocampus and remaining brain was then dissected and weighed. 100-200 mg of each section was placed in pre-weighed polypropylene tubes, reweighed, and snap frozen. The remaining tissue was discarded. All tissues were stored frozen at −80° C. on dry ice.
The observed distribution pattern was consistent with that observed in the rat study. […] As also shown in FIG. 14, all three peptides were detected in the CNS of the animals, with no behavioral or metabolic changes noted in these animals despite the significant exposure. The foregoing results therefor confirm that the peptides disclosed herein can be delivered topically for retinal indications.

in vivo = conditions: rabbit, topical or ocular, 3 mg/ml solution, 35 L per eye, Concentrations (ng/mL) in Rabbit Aqueous Humor
Description: as §1, §2, §3, §4, §5, §6

Row | IC50 (human recombinant MC5R; calcium flux functional assay) [nM] | IC50 (human recombinant MC3R) [nM] | IC50 (human recombinant MC1R) [nM] | SMILES | Topical Ocular Permeability (nM ± SEM) [1] [nM] | EC50 (human recombinant MC4R) [nM] | EC50 (human recombinant MC5R) [nM] | further results
1 | 140 | – | – | CCCC[C@H](NC(C)=O)C(=O)N[C@H]1CCCCn2cc(nn2)C[C@@H](C(N)=O)NC(=O)[C@H](Cc2c[nH]c3ccccc23)NC(=O)[C@H](CCCNC(=N)N)NC(=O)[C@@H](Cc2ccccc2)NC(=O)[C@H](Cc2cnc[nH]2)NC1=O [KR-009, Ac-Nle-[Lys(N3)-His-DPhe-Arg-Trp-Pra]-NH2] (Ac-[Nle][Lys(N3)]H[dF]RW[Pra]-NH2; triazole 2-7) | 1.43 ± 1.01 | 45.7 | 140 | solubility [2]: > 5000 µg/mL
2 | – | > 50000 | > 50 | CCCC[C@H](NC(C)=O)C(=O)N[C@H]1CCCCn2cc(nn2)C[C@@H](C(N)=O)NC(=O)[C@H](Cc2c[nH]c3ccccc23)NC(=O)[C@H](CCCNC(=N)N)NC(=O)[C@@H](Cc2ccccc2)N(C)C(=O)[C@H](Cc2c[nH]cn2)NC1=O [KR-044, Ac-Nle-[Lys(N3)-His-(NMe-Dphe)-Arg-Trp-Pra]-NH2] (Ac-[Nle][Lys(N3)]H[dNMeF]RW[Pra]-NH2; triazole 2-7) | – | – | – | –
3 | – | > 50000 | – | CCCC[C@H](NC(C)=O)C(=O)N[C@H]1CCCCn2cc(nn2)C[C@@H](C(N)=O)NC(=O)[C@H](Cc2c[nH]c3ccccc23)NC(=O)[C@H](CCCNC(=N)N)N(C)C(=O)[C@@H](Cc2ccccc2)NC(=O)[C@H](Cc2c[nH]cn2)NC1=O [KR-045, Ac-Nle-[Lys(N3)-His-DPhe-NMeArg-Trp-Pra]-NH2] (Ac-[Nle][Lys(N3)]H[dF][NMeR]W[Pra]-NH2; triazole 2-7) | – | – | – | –
4 | – | > 50000 | – | CCCC[C@H](NC(C)=O)C(=O)N[C@H]1CCCCn2cc(nn2)C[C@@H](C(N)=O)NC(=O)[C@H](Cc2c[nH]c3ccccc23)NC(=O)[C@H](CCCNC(=N)N)NC(=O)[C@@H](Cc2ccc(C(F)(F)F)cc2)NC(=O)[C@H](Cc2c[nH]cn2)NC1=O [KR-048, Ac-Nle-[Lys(N3)-His-Dphe(4-CF3)-Arg-Trp-Pra]-NH2] (Ac-[Nle][Lys(N3)]H[dPhe(4-CF3)]RW[Pra]-NH2; triazole 2-7) | – | – | – | –
5 | 25.2 | – | 0.019 | CCCC[C@H](NC(C)=O)C(=O)N[C@H]1CCCCn2cc(nn2)C[C@@H](C(N)=O)NC(=O)[C@H](Cc2c[nH]c3ccccc23)NC(=O)[C@H](CCCNC(=N)N)NC(=O)[C@@H](Cc2ccc(F)cc2)NC(=O)[C@H](Cc2c[nH]cn2)NC1=O [KR-049, Ac-Nle-[Lys(N3)-His-Dphe(4-F)-Arg-Trp-Pra]-NH2] (Ac-[Nle][Lys(N3)]H[dPhe(4-F)]RW[Pra]-NH2; triazole 2-7) | 23.9 ± 10.8 | 16.1 | 25.2 | melanin binding ([3]; compared with K173 and K174): enhanced melanin binding; scleral and retinal exposure ([3]; compared with K173 and K174): decreased scleral and retinal exposure; corneal permeability ([3]; similar to rabbit study): enhanced corneal permeability; EC50 (human recombinant MC1R): 0.019 nM; solubility [2]: 9950 µg/mL (≈ 9.33 mM)

More lines, now with the values behind:

Row | SMILES | IC50 (human recombinant MC5R; calcium flux functional assay) [nM] | IC50 (human recombinant MC3R) [nM] | IC50 (human recombinant MC1R) [nM] | Topical Ocular Permeability (nM ± SEM) [1] [nM] | EC50 (human recombinant MC4R) [nM] | EC50 (human recombinant MC5R) [nM] | further results
6 | N=C(N)NCCC[C@@H]1NC(=O)[C@H](Cc2ccccc2)NC(=O)[C@H](Cc2c[nH]cn2)NC(=O)[C@H](CCC(=O)O)NC(=O)CSC[C@@H](C(N)=O)NC(=O)[C@H](Cc2c[nH]c3ccccc23)NC1=O [KR-011, Cyclo(-Ac-Glu-His-Phe-Arg-Trp-Cys)-NH2] ({CH2CO}-EHFRWC-NH2; thioether N-6 (inferred)) | – | > 50000 | – | – | – | – | MC5R IC50 (human recombinant MC5R; calcium flux functional assay): Not fit
7 | CSCC[C@H](NC(=O)[C@H](CO)NC(=O)[C@H](Cc1ccc(O)cc1)NC(=O)[C@H](CO)NC(C)=O)C(=O)N[C@@H](CCC(=O)O)C(=O)N[C@@H](Cc1c[nH]cn1)C(=O)N(C)[C@@H](Cc1ccccc1)C(=O)N[C@@H](CCCNC(=N)N)C(=O)N[C@@H](Cc1c[nH]c2ccccc12)C(=O)NCC(=O)N[C@@H](CCCCN)C(=O)N1CCC[C@H]1C(=O)N[C@H](C(N)=O)C(C)C [KR-022, Ac-Ser-Tyr-Ser-Met-Glu-His-(NMe-Phe)-Arg-Trp-Gly-Lys-Pro-Val-NH2] | – | > 50000 | > 200 | – | – | – | –
8 | CCCC[C@H](NC(C)=O)C(=O)N1CCC(=O)NCCN(CC(=O)N[C@@H](Cc2c[nH]c3ccccc23)C(N)=O)C(=O)[C@H](CCCNC(=N)N)NC(=O)[C@@H](Cc2ccccc2)NC(=O)[C@H](Cc2c[nH]cn2)NC(=O)C1 [KR-029, Ac-Nle-cyc(NGlu-His-DPhe-Arg-NDab)-Trp-NH2] | > 10000 | > 50000 | > 50 | – | – | – | IC50 (human recombinant MC4R): > 1000 nM
9 | CCCC[C@H](NC(C)=O)C(=O)N[C@H]1CCCCn2cc(nn2)C[C@@H](C(N)=O)NC(=O)[C@H](Cc2c[nH]c3ccccc23)NC(=O)[C@H](CCCNC(=N)N)N(C)C(=O)[C@@H](Cc2ccccc2)NC(=O)[C@H](Cc2c[nH]cn2)N(C)C1=O [KR-052, Ac-Nle-[Lys(N3)-NMeHis-DPhe-NMeArg-Trp-Pra]-NH2] (Ac-[Nle][Lys(N3)][NMeH][dF][NMeR]W[Pra]-NH2; triazole 2-7) | 195 | > 50000 | 2.68 | – | – | – | IC50 (human recombinant MC4R): 122 nM
10 | CCCC[C@H](NC(C)=O)C(=O)N[C@H]1CCCCn2cc(nn2)C[C@@H](C(=O)N[C@@H](CCCCN)C(N)=O)NC(=O)[C@H](Cc2c[nH]c3ccccc23)NC(=O)[C@H](CCCNC(=N)N)NC(=O)[C@@H](Cc2ccc(OC)cc2)NC(=O)[C@H](Cc2c[nH]cn2)NC1=O [KR-058, Ac-Nle-[Lys(N3)-His-DTyr(Me)-Arg-Trp-Pra]-Lys-NH2] (Ac-[Nle][Lys(N3)]H[dY](Me)RW[Pra]K-NH2; triazole 2-7) | 195 | > 50000 | 2.68 | – | – | – | IC50 (human recombinant MC4R): 122 nM
11 | CCCC[C@H](NC(=O)c1cc(O)cc(O)c1)C(=O)N[C@H]1CCCCn2cc(nn2)C[C@@H](C(=O)N[C@@H](CCCC(N)=O)C(N)=O)NC(=O)[C@H](Cc2c[nH]c3ccccc23)NC(=O)[C@H](CCCNC(=N)N)NC(=O)[C@@H](Cc2ccc(F)cc2)NC(=O)[C@H](Cc2c[nH]cn2)NC1=O [KR-071, HyBA-Nle-[Lys(N3)-His-Dphe(4-F)-Arg-Trp-Pra]-Hgln-NH2] ({Benzoyl(3,5-(OH)2)}-[Nle][Lys(N3)]H[dPhe(4-F)]RW[Pra][Aad](NH2)-NH2; triazole 2-7) | 73.9 | – | 0.0023 | 2.5 ± 0.2 | 103 | 73.9 | level at 0.5 h (in vivo): 2.84 ng/mL; EC50 (human recombinant MC1R): 0.0023 nM; solubility ([2]; Table 8, read-out: Solubility): 6100 µg/mL (≈ 4.68 mM)
12 | CCCC[C@H](NC(=O)c1cc(O)cc(O)c1)C(=O)N[C@H]1CCCCn2cc(nn2)C[C@@H](C(N)=O)NC(=O)[C@H](Cc2c[nH]c3ccccc23)NC(=O)[C@H](CCCNC(=N)N)NC(=O)[C@@H](Cc2ccccc2)NC(=O)[C@H](Cc2c[nH]cn2)NC1=O [KR-073, HyBA-Nle-[Lys(N3)-His-DPhe-Arg-Trp-Pra]-NH2] ({Benzoyl(3,5-(OH)2)}-[Nle][Lys(N3)]H[dF]RW[Pra]-NH2; triazole 2-7) | 134 | – | 0.0041 | 12.3 ± 3.8 | 13.9 | 134 | EC50 (human recombinant MC1R): 0.0041 nM; solubility ([2]; Table 8, read-out: Solubility): 7690 µg/mL (≈ 6.73 mM)
